Assay results taken from US4228304A, “Novel cyclohexanecarboxylic acid and its derivatives” (Hisamitsu Pharmaceutical Co. Inc., priority 1977, dated 1980).
Structures can show the parent of a compound that is named as a salt.

Legend:
Acute toxicity (rat) = conditions: in vivo, po
Method: Each test compound suspended in 0.5% tragacanth gum-saline was administered orally, subcutaneously or intraperitoneally to animals ddY strain mouse and Wistar strain rats. The 50% lethal dose and the 95% confidence limit were calculated by Litchfield-Wilcoxon's method from the death of animals in 3 weeks following administration.

[1] = system: passive cutaneous anaphylaxis in rat; assay: Homologeous passive cutaneous anaphylaxis in rat; assay type: in vivo, rat (Wistar strain); conditions: orally, exuded pigment vs control
Method: (2) Homologeous passive cutaneous anaphylaxis in rat Each test compound suspended in 0.5% tragacanth gum-distilled water was administered orally to a group of five male Wistar strain rats (body weight 150-200 g). After one hour 0.1 ml of 5% anti-Dinitrophinol conpled Ascaris rat IgE serum-physiological sodium chloride solution was injected intradermally to dorsum of the rat. […] The animals were sacrificed by decapitation 30 minutes after the injection. Thereafter the skin of the animals were removed and the amount of the pigment exuded into the inflamed skin was determined. The percent inhibitions were calculated by the ratio of the amounts of exuded pigments to the control.

[2] = system: Picryl Chloride induced contact dermatitis; assay: Picryl Chloride induced contact dermatitis; assay type: in vivo, mouse (ddY strain); conditions: Mus musculus, po; for inhibition in vivo at 100 mg/kg: orally, ear swelling 24 hours after second challenge
Method: (3) Picryl Chloride induced contact dermatitis
At first 0.1 ml of 7% picryl chloride-ethanol solution was applied to skin of the depilated abdomens (area 2.5×15 mm) of ddY-strain male mice (body weight 20-22 g). After one week each 0.02 ml of 1% picryl chloride-olive oil solution was applied topically to the ears of the mouse. […] After three days 0.1 ml of 7% picryl chloride-ethanol solution was applied again to the depilated abdomens of the mice. After one week, each 0.02 ml of 1% picryl chloride-olive oil solution per ear were applied topically to the bilateral ears, and at same time, the test compounds were administered orally. Immediately before and 24 hours after the second challenge, the thickness of the ears was measured and the swelling was calculated. The percent inhibitions were calculated by the ratio of the each swelling to the control.

[3] = system: lung fragment of guinea pig; assay: Mediator (histamine) release on lung fragment of guinea pig; assay type: cell-based, guinea pig (Hartley strain); conditions: 10^-4 g/ml
Method: (4) Mediator release on lung fragment of guinea pig.
A group of Hartley strain male guinea pigs (body weight 250-300 g) were administered intraperitoneally anti-BPO-BGG IgE serum. The animals were sacrificed by decapitation, and those sensitized lungs were isolated for use. […] Following 10 minute incubation, the amount of the released histamine were determined by bioassay.

Emulsification test = assay type: physicochemical; conditions: 10 ml of 0.25% solution of the salt + 10 ml toluene, 40° C., 15 minutes standing
Method: (§1) (6) Emulsification test and determination of surface tention
They were emulsified in the test tube by turning it upside down repeatedly for 30 times at 40° C. and were allowed to stand for 15 minutes. After the standing the separated volume of aqueous layer was measured.

[4] = Determination of surface tension; assay type: physicochemical; conditions: 0.25% solution of the salt, Ring method, 25° C.
Method: as §1
As the structure of the compounds of the present invention is comparatively, similar to Amisoft, HS-11, a sort of Amisoft, which is mixture of 70% of N-stearoyl-L-glutamic acid monosodium salt and 30% of N-palmitoyl-L-glutamic acid monosodium salt was selected for the tests. The surface activity and the surface tension of the said HS-11 and the compounds of the present invention were measured and determined respectively, and those comparative results were shown in Table VII.
(2) Determination of surface tension
The 0.25% solution of the salt of each compound was determined by Ring method at 25° C.

[5] = system: rat adjuvant polyarthritis; assay: Effect on rat adjuvant polyarthritis; assay type: in vivo, rat (Sprague Dawley strain); conditions: oral daily: Compound No. 1 200 mg/kg, Ibuprofen 50 mg/kg, Prednisolone 0.5 mg/kg
Method: (5) Effect on rat adjuvant polyarthritis
A group of eight to ten male Sprague Dawley strain rats (body weight 240-280 g) were used. 0.1 ml of Complete Freuind's adjuvant (CFA, Mycobacterium butyricum, 100 mg/10 cc) was injected intradermally to the right hind sole.

SMILES: CC(C)CCC[C@H]1CC[C@@](C)(C(=O)NCC(=O)O)CC1 [Compound No. 2, N-(cis-4-isohexyl-1-methylcyclohexanecarbonyl)-glycine]
- LD50 at 504 h (Acute toxicity (rat); female rat): ~10300 mg/kg
- LD50 at 504 h (Acute toxicity (rat); male rat): ~11000 mg/kg
- Inhibition ([1]; 100 mg/kg): 46%
- inhibition in vivo at 100 mg/kg [2]: 41%
- inhibition (released histamine) [3]: 73.0%

SMILES: CC(C)CCC[C@H]1CC[C@@](C)(C(=O)N[C@H](C(=O)O)C(C)C)CC1 [compound 10]
- inhibition in vivo at 100 mg/kg [2]: 9%

SMILES: CC(C)CCC[C@H]1CC[C@@](C)(C(=O)N[C@@H](CS)C(=O)O)CC1 [compound 18]
- inhibition in vivo at 100 mg/kg [2]: 27%

SMILES: CC(C)CCC[C@H]1CC[C@](C)(C(=O)NCC(=O)O)CC1 [compound 21, N-(trans-4-isohexyl-1-methylcyclohexanecarbonyl)-glycine]
- inhibition in vivo at 100 mg/kg [2]: 53%

SMILES: CC(C)CCC[C@H]1CC[C@@](C)(C(=O)NCCCC(=O)O)CC1 [compound 13]
- inhibition in vivo at 100 mg/kg [2]: 40%

SMILES: CC(C)CCC[C@H]1CC[C@H](C(=O)NCCCCCC(=O)O)CC1 [Compound No. 42 (sodium salt)]
- Separated volume of aqueous layer (Emulsification test): 9.5 mL
- Surface tension γ [4]: 38.8 dyn/cm

SMILES: C[C@]12C=CC(=O)C=C1CC[C@@H]1[C@@H]2[C@@H](O)C[C@@]2(C)[C@H]1CC[C@]2(O)C(=O)CO [Prednisolone]
- Inhibition ([1]; 5 mg/kg): 42%
- inhibition in vivo at 5 mg/kg ([2]; 24 h, read-out: Inhibition): 32%
- inhibition (released histamine) [3]: 4.0%
- Swelling percent of left hind paw (non-treatment of CFA) ([5]; day 0): -1.1±1.0%
- Swelling percent of right hind paw (treatment of CFA) ([5]; day 0): 118.4± 6.0%
- Swelling percent of left hind paw (non-treatment of CFA) ([5]; day 1): -1.0±1.0%
- Swelling percent of right hind paw (treatment of CFA) ([5]; day 1): 97.3± 6.5%
- Swelling percent of left hind paw (non-treatment of CFA) ([5]; day 4): -1.7±1.1%
- Swelling percent of right hind paw (treatment of CFA) ([5]; day 4): 232.7±17.8%
- Swelling percent of left hind paw (non-treatment of CFA) ([5]; day 7): 5.7±1.9%
- Swelling percent of right hind paw (treatment of CFA) ([5]; day 7): 200.3±22.5%
- Swelling percent of left hind paw (non-treatment of CFA) ([5]; day 10): 4.5±2.9%
- Swelling percent of right hind paw (treatment of CFA) ([5]; day 10): 167.2±19.0%
- Swelling percent of left hind paw (non-treatment of CFA) ([5]; day 14): 12.5±2.4%
- Swelling percent of right hind paw (treatment of CFA) ([5]; day 14): 175.0±18.6%
- Swelling percent of left hind paw (non-treatment of CFA) ([5]; day 17): 9.8±1.4%
- Swelling percent of right hind paw (treatment of CFA) ([5]; day 17): 174.2±18.6%
- Swelling percent of left hind paw (non-treatment of CFA) ([5]; day 21): 7.1±1.5%
- Swelling percent of right hind paw (treatment of CFA) ([5]; day 21): 173.0±23.7%

SMILES: CC(C)CCC[C@H]1CC[C@@](C)(C(=O)N[C@@H](CCC(=O)O)C(=O)O)CC1 [Compound No. 15 (monosodium salt)]
- Separated volume of aqueous layer (Emulsification test): 9.3 mL
- Surface tension γ [4]: 42.3 dyn/cm

SMILES: CC(C)CCC[C@H]1CC[C@@](C)(C(=O)N[C@@H](C)C(=O)O)CC1 [compound 5]
- inhibition in vivo at 100 mg/kg [2]: 32%

SMILES: CCC(NC(=O)[C@]1(C)CC[C@H](CCCC(C)C)CC1)C(=O)O (stereo partly drawn) [Compound No. 12 (potassium salt)]
- Separated volume of aqueous layer (Emulsification test): 7.3 mL
- Surface tension γ [4]: 44.5 dyn/cm

SMILES: CC(C)CCC[C@H]1CC[C@@](C)(C(=O)N[C@@H](CCC(N)=O)C(=O)O)CC1 [compound 14]
- inhibition in vivo at 100 mg/kg [2]: 7%

SMILES: CSCC[C@H](NC(=O)[C@]1(C)CC[C@H](CCCC(C)C)CC1)C(=O)O [Compound No. 17 (triethanolamine salt)]
- Separated volume of aqueous layer (Emulsification test): 9.5 mL
- Surface tension γ [4]: 42.3 dyn/cm

SMILES: CC(C)Cc1ccc(C(C)C(=O)O)cc1 (stereo not drawn) [Ibuprofen]
- Swelling percent of left hind paw (non-treatment of CFA) ([5]; day 0): -1.7±1.3%
- Swelling percent of right hind paw (treatment of CFA) ([5]; day 0): 118.6± 5.7%
- Swelling percent of left hind paw (non-treatment of CFA) ([5]; day 1): -2.4±1.0%
- Swelling percent of right hind paw (treatment of CFA) ([5]; day 1): 98.1± 6.1%
- Swelling percent of left hind paw (non-treatment of CFA) ([5]; day 4): -2.3±1.5%
- Swelling percent of right hind paw (treatment of CFA) ([5]; day 4): 204.7±11.6%
- Swelling percent of left hind paw (non-treatment of CFA) ([5]; day 7): 1.5±1.8%
- Swelling percent of right hind paw (treatment of CFA) ([5]; day 7): 181.7±14.8%
- Swelling percent of left hind paw (non-treatment of CFA) ([5]; day 10): 7.4±1.8%
- Swelling percent of left hind paw (non-treatment of CFA) ([5]; day 14): 12.5±1.5%
- Swelling percent of left hind paw (non-treatment of CFA) ([5]; day 17): 8.5±1.5%
- Swelling percent of left hind paw (non-treatment of CFA) ([5]; day 21): 8.5±2.0%
- Swelling percent of right hind paw (treatment of CFA) ([5]; day 21): 138.5±12.6%

SMILES: CSCC[C@H](NC(=O)[C@]1(C)CC[C@H](CCCC(C)C)CC1)C(=O)O [Compound No. 17]
- inhibition in vivo at 100 mg/kg [2]: 50%

SMILES: CC[C@H](C)[C@H](NC(=O)[C@]1(C)CC[C@H](CCCC(C)C)CC1)C(=O)O [compound 8]
- inhibition in vivo at 100 mg/kg [2]: 41%

SMILES: CCCC(NC(=O)[C@]1(C)CC[C@H](CCCC(C)C)CC1)C(=O)O (stereo partly drawn) [compound 9]
- inhibition in vivo at 100 mg/kg [2]: 47%

SMILES: CC(C)CCC[C@H]1CC[C@@](C)(C(=O)NCCC(=O)O)CC1 [compound 6, N-(cis-4-isohexyl-1-methylcyclohexanecarbonyl)-β-alanine]
- inhibition in vivo at 100 mg/kg [2]: 10%

SMILES: CC(C)CCC[C@H]1CC[C@@](C)(C(=O)NCCCCCC(=O)O)CC1 [compound 3, N-(cis-4-isohexyl-1-methylcyclohexanecarbonyl)-ε-aminocaproic acid]
- inhibition in vivo at 100 mg/kg [2]: 45%

SMILES: CC(C)CCC[C@H]1CC[C@@](C)(C(=O)NCC(=O)O)CC1 [Compound No. 2 (potassium salt)]
- Separated volume of aqueous layer (Emulsification test): 9.5 mL
- Surface tension γ [4]: 39.5 dyn/cm

SMILES: CCC(NC(=O)[C@]1(C)CC[C@H](CCCC(C)C)CC1)C(=O)O (stereo partly drawn) [Compound No. 12]
- inhibition in vivo at 100 mg/kg [2]: 27%

SMILES: CCCCC(NC(=O)[C@]1(C)CC[C@H](CCCC(C)C)CC1)C(=O)O (stereo partly drawn) [compound 11]
- inhibition in vivo at 100 mg/kg [2]: 37%

SMILES: CC(C)CCC[C@H]1CC[C@](C)(C(=O)O)CC1 [compound 20, trans-4-isohexyl-1-methylcyclohexanecarboxylic acid]
- inhibition in vivo at 100 mg/kg [2]: 44%

SMILES: CC1(C)[C@@H](O[C@H]2O[C@H](C(=O)O)[C@@H](O)[C@H](O)[C@H]2O[C@@H]2O[C@H](C(=O)O)[C@@H](O)[C@H](O)[C@H]2O)CC[C@]2(C)[C@H]3C(=O)C=C4[C@@H]5C[C@@](C)(C(=O)O)CC[C@]5(C)CC[C@@]4(C)[C@]3(C)CC[C@@H]12 [Glycyrrhizin, reference compound]
- Inhibition ([1]; 100 mg/kg): 22%
- inhibition (released histamine) [3]: 8.0%
